# Reference: patent US10202361B2, “Pyridazinones as herbicides” (E I DU PONT DE NEMOURS AND COMPANY, priority 2014, dated 2019)
# Like-named read-outs stand apart in the source and are kept apart here.
# How the values were obtained:
# Experiment in all cases: Test C pre-/postemergence greenhouse herbicide test
# Format in all cases: in vivo
# [1] = system: barnyardgrass (Echinochloa crus-galli); settings: Barnyardgrass
# Summary of the method: (§1)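 Plant response is scored on a 0–100 scale, where 100 means complete control, by visual comparison with controls 13 to 15 d after greenhouse treatment. Applications are made pre- and postemergence using a surfactant-containing, non-phytotoxic solvent formulation.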
# corn (Zea mays) = settings: Zea mays, Corn, read-out: Plant response rating; for plant injury at 31 g/ha: 31 g ai/ha; for plant injury at 62 g/ha: 62 g ai/ha; for plant injury at 125 g/ha: 125 g ai/ha; for plant injury at 250 g/ha: 250 g ai/ha
# Summary of the method: as §1
# [2] = system: galium (catchweed bedstraw, Galium aparine); settings: Galium, read-out: Plant response rating; for pest or weed control at 31 g/ha: 31 g ai/ha; for pest or weed control at 62 g/ha: 62 g ai/ha; for pest or weed control at 125 g/ha: 125 g ai/ha; for pest or weed control at 250 g/ha: 250 g ai/ha
# Summary of the method: as §1
# [3] = system: johnsongrass (Sorghum halepense); settings: Sorghum halepense, Johnsongrass, read-out: Plant response rating; for pest or weed control at 31 g/ha: 31 g ai/ha; for pest or weed control at 62 g/ha: 62 g ai/ha; for pest or weed control at 125 g/ha: 125 g ai/ha; for pest or weed control at 250 g/ha: 250 g ai/ha
# Summary of the method: as §1
# kochia (Kochia scoparia) = settings: Postemergence
# Summary of the method: as §1
# [4] = system: lambsquarters (Chenopodium album)
# Summary of the method: as §1
# [5] = system: morningglory (Ipomoea coccinea); settings: Morningglory
# Summary of the method: as §1
# [6] = system: nutsedge, yellow (yellow nutsedge, Cyperus esculentus); settings: Cyperus, Nutsedge, Yellow, read-out: Plant response rating; for pest or weed control at 31 g/ha: 31 g ai/ha; for pest or weed control at 62 g/ha: 62 g ai/ha; for pest or weed control at 125 g/ha: 125 g ai/ha; for pest or weed control at 250 g/ha: 250 g ai/ha
# Summary of the method: as §1
# [7] = system: oat, wild (wild oat, Avena fatua); settings: Postemergence
# Summary of the method: as §1
# [8] = system: pigweed (Amaranthus retroflexus); settings: Amaranthus retroflexus, Pigweed, read-out: Plant response rating; for pest or weed control at 31 g/ha: 31 g ai/ha; for pest or weed control at 62 g/ha: 62 g ai/ha; for pest or weed control at 125 g/ha: 125 g ai/ha; for pest or weed control at 250 g/ha: 250 g ai/ha
# Summary of the method: as §1
# soybean (Glycine max) = settings: Glycine max, Soybean, read-out: Plant response rating; for plant injury at 62 g/ha: 62 g ai/ha; for plant injury at 125 g/ha: 125 g ai/ha; for plant injury at 250 g/ha: 250 g ai/ha
# Summary of the method: as §1
# [9] = system: waterhemp (common waterhemp, Amaranthus rudis); settings: Waterhemp
# Summary of the method: as §1
# [10] = system: wheat (winter wheat, Triticum aestivum); settings: Triticum aestivum, Wheat, read-out: Plant response rating; for plant injury at 62 g/ha: 62 g ai/ha; for plant injury at 125 g/ha: 125 g ai/ha; for plant injury at 250 g/ha: 250 g ai/ha
# Summary of the method: as §1
smiles,measurement,setting,value
"COc1cc(=O)n(-c2ccc(C(F)(F)F)cc2)nc1Cc1ccnc(C(F)(F)F)c1 [Compound 16, 5-methoxy-2-[4-(trifluoromethyl)phenyl]-6-[[2-(trifluoromethyl)-4-pyridinyl]methyl]-3(2H)-pyridazinone]",Plant response rating,"[1]; Postemergence, 31 g ai/ha",10
same,Plant response rating,"[1]; Postemergence, 62 g ai/ha",10
same,Plant response rating,"[1]; Postemergence, 125 g ai/ha",25
same,Plant response rating,"[1]; Postemergence, 250 g ai/ha",35
same,Plant response rating,"[1]; Preemergence, 31 g ai/ha",75
same,Plant response rating,"[1]; Preemergence, 62 g ai/ha",80
same,Plant response rating,"[1]; Preemergence, 125 g ai/ha",95
same,Plant response rating,"[1]; Preemergence, 250 g ai/ha",100
same,plant injury at 31 g/ha,"corn (Zea mays); post-emergence, Postemergence",20%
same,plant injury at 62 g/ha,"corn (Zea mays); post-emergence, Postemergence",40%
same,plant injury at 125 g/ha,"corn (Zea mays); post-emergence, Postemergence",40%
same,plant injury at 250 g/ha,"corn (Zea mays); post-emergence, Postemergence",55%
same,plant injury at 31 g/ha,"corn (Zea mays); pre-emergence, Preemergence",45%
same,plant injury at 62 g/ha,"corn (Zea mays); pre-emergence, Preemergence",60%
same,plant injury at 125 g/ha,"corn (Zea mays); pre-emergence, Preemergence",75%
same,plant injury at 250 g/ha,"corn (Zea mays); pre-emergence, Preemergence",75%
same,pest or weed control at 31 g/ha,"[2]; post-emergence, Postemergence",80%
same,pest or weed control at 62 g/ha,"[2]; post-emergence, Postemergence",80%
same,pest or weed control at 125 g/ha,"[2]; post-emergence, Postemergence",90%
same,pest or weed control at 250 g/ha,"[2]; post-emergence, Postemergence",90%
same,pest or weed control at 31 g/ha,"[2]; pre-emergence, Preemergence",70%
same,pest or weed control at 62 g/ha,"[2]; pre-emergence, Preemergence",98%
same,pest or weed control at 125 g/ha,"[2]; pre-emergence, Preemergence",100%
same,pest or weed control at 250 g/ha,"[2]; pre-emergence, Preemergence",100%
same,pest or weed control at 31 g/ha,"[3]; post-emergence, Postemergence",10%
same,pest or weed control at 62 g/ha,"[3]; post-emergence, Postemergence",10%
same,pest or weed control at 125 g/ha,"[3]; post-emergence, Postemergence",20%
same,pest or weed control at 250 g/ha,"[3]; post-emergence, Postemergence",35%
same,pest or weed control at 31 g/ha,"[3]; pre-emergence, Preemergence",60%
same,pest or weed control at 62 g/ha,"[3]; pre-emergence, Preemergence",75%
same,pest or weed control at 125 g/ha,"[3]; pre-emergence, Preemergence",85%
same,pest or weed control at 250 g/ha,"[3]; pre-emergence, Preemergence",98%
same,Plant response rating,kochia (Kochia scoparia); 31 g ai/ha,90
same,Plant response rating,kochia (Kochia scoparia); 62 g ai/ha,90
same,Plant response rating,kochia (Kochia scoparia); 125 g ai/ha,90
same,Plant response rating,kochia (Kochia scoparia); 250 g ai/ha,90
same,Plant response rating,"[4]; Postemergence, 31 g ai/ha",70
same,Plant response rating,"[4]; Postemergence, 62 g ai/ha",95
same,Plant response rating,"[4]; Postemergence, 125 g ai/ha",95
same,Plant response rating,"[4]; Postemergence, 250 g ai/ha",95
same,Plant response rating,"[4]; Preemergence, 31 g ai/ha",100
same,Plant response rating,"[4]; Preemergence, 62 g ai/ha",100
same,Plant response rating,"[4]; Preemergence, 125 g ai/ha",100
same,Plant response rating,"[4]; Preemergence, 250 g ai/ha",100
same,Plant response rating,"[5]; Postemergence, 31 g ai/ha",50
same,Plant response rating,"[5]; Postemergence, 62 g ai/ha",70
same,Plant response rating,"[5]; Postemergence, 125 g ai/ha",98
same,Plant response rating,"[5]; Postemergence, 250 g ai/ha",98
same,Plant response rating,"[5]; Preemergence, 31 g ai/ha",45
same,Plant response rating,"[5]; Preemergence, 62 g ai/ha",95
same,Plant response rating,"[5]; Preemergence, 125 g ai/ha",100
same,Plant response rating,"[5]; Preemergence, 250 g ai/ha",100
same,pest or weed control at 31 g/ha,"[6]; post-emergence, Postemergence",5%
same,pest or weed control at 62 g/ha,"[6]; post-emergence, Postemergence",5%
same,pest or weed control at 125 g/ha,"[6]; post-emergence, Postemergence",5%
same,pest or weed control at 250 g/ha,"[6]; post-emergence, Postemergence",20%
same,pest or weed control at 31 g/ha,"[6]; pre-emergence, Preemergence",5%
same,pest or weed control at 62 g/ha,"[6]; pre-emergence, Preemergence",10%
same,pest or weed control at 125 g/ha,"[6]; pre-emergence, Preemergence",30%
same,pest or weed control at 250 g/ha,"[6]; pre-emergence, Preemergence",55%
same,Plant response rating,[7]; 31 g ai/ha,15
same,Plant response rating,[7]; 62 g ai/ha,30
same,Plant response rating,[7]; 125 g ai/ha,40
same,Plant response rating,[7]; 250 g ai/ha,60
same,pest or weed control at 31 g/ha,"[8]; post-emergence, Postemergence",55%
same,pest or weed control at 62 g/ha,"[8]; post-emergence, Postemergence",90%
same,pest or weed control at 125 g/ha,"[8]; post-emergence, Postemergence",95%
same,pest or weed control at 250 g/ha,"[8]; post-emergence, Postemergence",95%
same,pest or weed control at 31 g/ha,"[8]; pre-emergence, Preemergence",100%
same,pest or weed control at 62 g/ha,"[8]; pre-emergence, Preemergence",100%
same,pest or weed control at 125 g/ha,"[8]; pre-emergence, Preemergence",100%
same,pest or weed control at 250 g/ha,"[8]; pre-emergence, Preemergence",100%
same,plant injury at 62 g/ha,"soybean (Glycine max); post-emergence, Postemergence",50%
same,plant injury at 125 g/ha,"soybean (Glycine max); post-emergence, Postemergence",55%
same,plant injury at 250 g/ha,"soybean (Glycine max); post-emergence, Postemergence",65%
same,plant injury at 62 g/ha,"soybean (Glycine max); pre-emergence, Preemergence",25%
same,plant injury at 125 g/ha,"soybean (Glycine max); pre-emergence, Preemergence",65%
same,plant injury at 250 g/ha,"soybean (Glycine max); pre-emergence, Preemergence",75%
same,Plant response rating,"[9]; Postemergence, 31 g ai/ha",80
same,Plant response rating,"[9]; Postemergence, 62 g ai/ha",90
same,Plant response rating,"[9]; Postemergence, 125 g ai/ha",95
same,Plant response rating,"[9]; Postemergence, 250 g ai/ha",98
same,Plant response rating,"[9]; Preemergence, 62 g ai/ha",100
same,Plant response rating,"[9]; Preemergence, 125 g ai/ha",100
same,Plant response rating,"[9]; Preemergence, 250 g ai/ha",100
same,plant injury at 31 g/ha,"[10]; post-emergence, Postemergence, 31 g ai/ha",5%
same,plant injury at 62 g/ha,"[10]; post-emergence, Postemergence",5%
same,plant injury at 125 g/ha,"[10]; post-emergence, Postemergence",10%
same,plant injury at 250 g/ha,"[10]; post-emergence, Postemergence",10%
same,plant injury at 62 g/ha,"[10]; pre-emergence, Preemergence",25%
same,plant injury at 125 g/ha,"[10]; pre-emergence, Preemergence",45%
same,plant injury at 250 g/ha,"[10]; pre-emergence, Preemergence",50%
